Some results are limits rather than exact numbers.

Data set [1] addresses T1, PI-3 kinase γ (Homo sapiens, UniProt P48736). The experiment in a line: PI3Kγ inhibitory activity, PI3-kinase HTRF assay (inhibition ratio). The conditions noted are these: 0.5 h; for inhibition at 50 µM: compound at 50 μM. In kind it is biochemical. Summed up: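 PI3Kγ preincubated 10 min with compound and PIP2 substrate (MgCl2, DTT), then ATP added for 30 min at room temperature. PIP3 detected by HTRF (665/620 nm ratio) after 18 h. Inhibition ratio at 50 or 10 μmol/L, normalised to no-compound and no-enzyme controls.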

For data set [2], the target named is T2, human ether-a-go-go related gene (hERG) channel (Homo sapiens, UniProt Q12809).
T2 construct: expressed in transfected cells; host or cells: HEK293
The data set is described as follows: hERG test, whole-cell patch-clamp. In kind it is cell-based. The conditions noted are these: HEK293 cell expressing hERG; applied for 10 minutes; concentration not given. An excerpt: For the purpose of risk evaluation of QT interval extension of electrocardiogram, the activity on delayed rectification K^+ current (IKr), which plays an important role in a cardiac ventricle repolarization process, was examined using the HEK293 cell that was made to express human ether-a-go-go related gene (hERG) channel.
Using an automatic patch-clamp system (PatchXpress 7000A, Axon Instruments Inc.), by a whole-cell patch-clamp method, after the cell was maintained at a membrane potential of −80 mV, IKr induced upon applying depolarizing stimulation of +50 mV for 2 seconds and further applying repolarizing stimulation of −50 mV for 2 seconds was recorded. After generated electric current became stable, a test substance dissolved at an intended concentration in extracellular fluid (137 mmol/L NaCl, 4 mmol/L KCl, 1.8 mmol/L CaCl2.2H2O, 1 mmol/L MgCl2.6H2O, 10 mmol/L glucose, 10 mmol/L HEPES (4-(2-hydroxyethyl)-1-piperazineethanesulfonic acid), pH=7.4) was applied to the cell for 10 minutes under room temperature condition. From the obtained IKr, the absolute value of the maximum tail current was measured using analysis software (DataXpress ver. 1, Molecular Devices Corporation) and the value of the electric current in a maintained membrane potential as baseline. Moreover, an inhibition ratio for the maximum tail current prior to the application of the test substance was calculated and then compared with a group of media-application (0.1% dimethylsulfoxide solution) to evaluate influence of the test substance on IKr.
For orientation: Block of hERG is tested as a sign of cardiac risk.

In data set [3] the test system is AKT phosphorylation in human monocyte-like cell line THP-1. The data set is described as follows: AKT phosphorylation inhibitory activity in MCP-1-stimulated THP-1 cells (ELISA). In kind it is cell-based. Particulars: 1 μmol/L solution of each compound, MCP-1 stimulation, read-out: AKT phosphorylation inhibition ratio. The procedure:
(1) The AKT phosphorylation inhibitory activity of a compound was evaluated according to the following procedure. (2) Human monocyte-like cell line THP-1 was washed with RPMI-1640 media, incubated in the presence of 5% CO2 at 37° C. for 3 hours, washed with Hank's balanced salt solution (HBSS), adjusted to a cell concentration of 6.6×10^6/mL, and then used in an experiment. (3) 30 μL of the cell suspension and 60 μL of each compound solution containing 0.2% DMSO/HBSS were mixed and then preincubated at 37° C. for 5 minutes. 30 μL of HBSS containing 4 μg/mL of MCP-1 was added thereto and then incubated for 30 seconds at 37° C. (4) 30 μl of a cell lysate (20 mmol/L Tris-HCl (pH 7.5), 150 mmol/L NaCl, 1 mmol/L Na2EDTA, 1 mmol/L EGTA, 1% Triton, 2.5 mmol/L sodium pyrophosphate, 1 mmol/L β-glycerophosphate, 1 mmol/L Na3VO4, 1 μg/ml leupeptin, 50 nmol/L APMSF) was added thereto to lyse cells. (5) The amount of AKT phosphorylation in the cell lysate was measured by ELISA method. (6) Anti-phospho-Akt (Ser473) antibodies (clone 193H12, derived from a rabbit) were immobilized onto the solid phase of a micro well plate. 100 μL of the prepared cell lysate was added to the micro well plate, incubated for 2 hours at 37° C., and then washed four times with Phosphate Buffered Saline containing 0.05% Tween-20. (7) An anti-AKT1 antibody (clone 2H10, derived from a mouse) was added thereto, incubated for 1 hour at 37° C., washed similarly, and then reacted with an HRP-labeled anti-mouse IgG antibody. (8) After incubating at 37° C. for 30 minutes and then washing similarly, 100 μL of TMB (3,3′,5,5″-tetramethylbenzidine) was added thereto, followed by reacting at room temperature for 30 minutes. (9) 100 μL of 1 mol/L sulfuric acid was added to quench the color reaction and then the absorbance at 450 nm was measured. (10) A series of diluted cell lysates of a positive control (a sample in the absence of a compound) were used to prepare a calibration curve, the amount of AKT phosphorylation in a sample in the absence of MCP-1 was defined as 0% activity to calculate an inhibition ratio. The measurement was performed for a 1 μmol/L solution of each compound.
For orientation: ELISA stands for enzyme-linked immunosorbent assay.

The target of data set [4] is T1, PI-3 kinase γ. The experiment in a line: PI3Kγ inhibitory activity (Ki value), HTRF. It counts as biochemical. The conditions noted are these: Ki=IC50/(1+10 μM ATP/Km). The procedure:
The PI3Kγ inhibitory activity (Ki value) of a compound was evaluated according to the following procedure:
5 μL of a compound solution containing 10% DMSO and 200 μmol/L of a compound was changed to 5 μL of a compound solution containing 10% DMSO and either 200, 64, 20, 6.4, 2, 0.64, or 0.20 μmol/L of the compound (optionally, this is diluted to a lower concentration). Using a method similar to the method for measuring PI3Kγ inhibitory activity, inhibition ratios were measured in the presence of the compound at 50, 16, 5, 1.6, 0.5, 0.16, and 0.05 μmol/L (optionally, a lower concentration). Then an IC50 value was calculated by a logistic approximation method or the linear regression method using two concentrations that across 50% inhibition. Separately, the ATP concentration in the reaction solution (40 μmol/L ATP, 10 mmol/L MgCl2, 5 mmol/L DTT) at the time of the start of a reaction in the absence of the compound was changed to 80, 40, 20, 10, 5, 2.5, 1.25, or 0.625 μmol/L. Then, HTRF ratios were measured by a similar method. The value obtained by subtracting the HTRF ratio at each ATP concentration from the HTRF ratio in the absence of PI-3 kinase γ was defined as the value obtained by multiplying reaction rate (v) at each ATP concentration with a constant. The Michaelis-Menten constant Km was then calculated by the Lineweaver-Burk plot method. The Ki value of a compound was calculated by the following formula.
Ki=IC50 value/(1+10 μM (test ATP concentration)/Km (μM))

Another data set is described as follows: Solubility test. It counts as physicochemical. The conditions noted are these: kinetic from dmso stock; artificial intestinal juice pH 6.8, 1% DMSO, 25° C. for 16 hours. How it is done: The solubility of a compound was determined under a condition in which 1% DMSO was added. 10 mmol/L compound solution was prepared using DMSO, and then 6 μL of the compound solution was added to 594 μL of artificial intestinal juice in pH 6.8 (to 250 mL of 0.2 mol/L potassium dihydrogen phosphate reagent solution was added 118 mL of 0.2 mol/L NaOH reagent solution and water to provide a final volume of 1000 mL). After standing at 25° C. for 16 hours, the mixed solution was filtered with suction. The filtrate was diluted twice with methanol/water (1/1), and then a concentration in the filtration was measured with HPLC or LC/MS/MS by the absolute calibration method.

A further data set is described as follows: Metabolic stability test.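 Further: 100% equals the compound amount at 0 min reaction.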 It counts as in vitro ADME. Particulars: human liver microsome 0.5 mg protein/mL, 1 mmol/L NADPH, 37° C. How it is done: After a subject compound was reacted for a certain time using a pooled human liver microsome commercially available, a reacted sample and an unreacted sample are compared to calculate a survival ratio, and then the degree of metabolism in the liver was evaluated.
0.2 mL of a buffer solution (50 mmol/L of Tris-HCl in pH 7.4, 150 mmol/L of potassium chloride, and 10 mmol/L of magnesium chloride) containing a human liver microsome of 0.5 mg protein/mL was reacted in the presence of 1 mmol/L NADPH at 37° C. for 0 or 30 minutes (oxidative reaction). After reacting, 50 μL of the reaction solution was added to 100 μL of a solution of methanol/acetonitrile (1/1 (v/v)), mixed, and then centrifuged at 3000 rpm for 15 minutes. The test compound in the supernatant was quantitated with LC/MS/MS. The amount of the compound at a reaction time of 0 minute was defined as 100% and, based on that, the percentage of the test compound remained after reacting for 30 minutes was calculated.
In general terms: Liver microsomes are vesicles of endoplasmic reticulum, rich in cytochrome P450 enzymes.

T1 sequence (P48736 whole entry): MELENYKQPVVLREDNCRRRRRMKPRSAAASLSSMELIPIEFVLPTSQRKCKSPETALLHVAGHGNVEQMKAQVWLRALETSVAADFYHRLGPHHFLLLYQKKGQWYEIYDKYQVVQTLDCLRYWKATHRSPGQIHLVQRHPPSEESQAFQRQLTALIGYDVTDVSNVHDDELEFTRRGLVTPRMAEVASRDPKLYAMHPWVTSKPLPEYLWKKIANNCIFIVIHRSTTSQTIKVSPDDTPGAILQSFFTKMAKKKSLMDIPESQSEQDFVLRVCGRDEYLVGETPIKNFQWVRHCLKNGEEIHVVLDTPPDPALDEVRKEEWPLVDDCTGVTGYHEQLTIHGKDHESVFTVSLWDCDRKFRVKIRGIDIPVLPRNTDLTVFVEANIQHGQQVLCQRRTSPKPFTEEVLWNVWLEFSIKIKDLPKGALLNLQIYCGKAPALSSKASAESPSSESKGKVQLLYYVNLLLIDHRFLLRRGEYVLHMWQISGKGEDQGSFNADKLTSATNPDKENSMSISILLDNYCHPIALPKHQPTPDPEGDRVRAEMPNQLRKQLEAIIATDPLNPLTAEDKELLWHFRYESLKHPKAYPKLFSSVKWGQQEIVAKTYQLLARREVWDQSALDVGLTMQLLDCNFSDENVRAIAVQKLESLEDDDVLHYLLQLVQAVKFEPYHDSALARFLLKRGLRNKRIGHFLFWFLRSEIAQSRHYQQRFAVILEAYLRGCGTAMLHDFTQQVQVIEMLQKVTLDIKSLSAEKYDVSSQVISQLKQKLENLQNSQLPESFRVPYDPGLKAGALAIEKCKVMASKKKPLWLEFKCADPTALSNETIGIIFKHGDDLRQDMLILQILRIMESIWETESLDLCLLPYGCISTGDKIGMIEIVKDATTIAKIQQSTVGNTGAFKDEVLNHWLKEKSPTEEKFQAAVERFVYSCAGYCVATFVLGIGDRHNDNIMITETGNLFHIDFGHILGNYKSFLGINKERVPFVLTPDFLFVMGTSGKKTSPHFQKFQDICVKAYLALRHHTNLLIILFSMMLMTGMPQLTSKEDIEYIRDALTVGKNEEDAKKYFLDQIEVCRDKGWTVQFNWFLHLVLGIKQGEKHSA
T2 sequence (Q12809 whole entry): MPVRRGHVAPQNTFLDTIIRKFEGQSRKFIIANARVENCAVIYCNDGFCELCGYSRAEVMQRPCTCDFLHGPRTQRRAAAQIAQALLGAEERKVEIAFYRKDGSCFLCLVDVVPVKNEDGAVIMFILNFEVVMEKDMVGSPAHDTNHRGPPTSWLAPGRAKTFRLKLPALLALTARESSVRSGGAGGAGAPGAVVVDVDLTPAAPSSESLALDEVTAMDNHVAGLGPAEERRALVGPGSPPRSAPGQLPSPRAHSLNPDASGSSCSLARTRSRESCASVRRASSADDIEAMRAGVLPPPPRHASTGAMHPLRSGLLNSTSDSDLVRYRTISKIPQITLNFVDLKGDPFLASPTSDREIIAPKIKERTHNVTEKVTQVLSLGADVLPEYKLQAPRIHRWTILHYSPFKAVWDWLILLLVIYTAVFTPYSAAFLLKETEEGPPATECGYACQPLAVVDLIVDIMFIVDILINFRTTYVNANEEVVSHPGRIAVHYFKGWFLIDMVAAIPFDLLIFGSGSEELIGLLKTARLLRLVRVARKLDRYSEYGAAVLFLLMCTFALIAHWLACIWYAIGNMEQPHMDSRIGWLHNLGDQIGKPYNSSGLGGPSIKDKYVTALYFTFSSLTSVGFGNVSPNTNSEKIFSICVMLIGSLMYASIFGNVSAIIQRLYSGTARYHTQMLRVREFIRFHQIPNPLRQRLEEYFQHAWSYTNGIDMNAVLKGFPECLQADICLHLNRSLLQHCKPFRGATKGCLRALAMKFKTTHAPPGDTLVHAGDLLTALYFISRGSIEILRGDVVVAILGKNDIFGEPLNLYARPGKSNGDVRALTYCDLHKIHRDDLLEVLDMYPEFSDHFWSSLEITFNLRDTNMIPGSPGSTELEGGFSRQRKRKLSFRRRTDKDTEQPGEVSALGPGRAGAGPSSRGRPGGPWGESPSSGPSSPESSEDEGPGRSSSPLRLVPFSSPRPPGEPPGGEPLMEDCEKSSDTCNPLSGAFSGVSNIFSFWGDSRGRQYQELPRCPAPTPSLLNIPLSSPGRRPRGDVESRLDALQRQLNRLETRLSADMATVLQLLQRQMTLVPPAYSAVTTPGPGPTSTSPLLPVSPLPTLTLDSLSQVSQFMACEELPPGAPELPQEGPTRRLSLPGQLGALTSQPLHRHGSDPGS

For `CNC(=O)Nc1cc2n(n1)CCN2c1ccc(C(N)=O)cc1` [Compound I-160], on PI-3 kinase γ [1] (PI3Kγ), the inhibition at 50 µM is ≥ 95%. In data set [2], the “inhibition ratio for the maximum tail current (IKr)” value was −0.4%.

Turning to `CCOC(=O)CNC(=O)Nc1nc2c(s1)CN(c1cc(OC)nc(OC)n1)CC2` [Compound I-202], at PI-3 kinase γ [1] (PI3Kγ), the inhibition at 50 µM is ≥ 95%. For the same compound, the inhibition in data set [3] is > 99.5%. At PI-3 kinase γ [4], this compound showed a Ki of 49 nM.

With `CC(=O)Nc1nc2c(s1)CN(c1ccccc1)CC2` [Compound I-230], the inhibition at 50 µM at PI-3 kinase γ [1] (PI3Kγ) turned out to be 81%. For the same compound, in the data set “Solubility test”, the solubility at 16 h was > 50 µM. The “percentage of the test compound remained after reacting for 30 minutes” value (shortened to “percentage of the test compound remained”) in “Metabolic stability test” is on record as 87.9%. Besides, the “inhibition ratio for the maximum tail current (IKr)” value in data set [2] turned out to be 9.1%.

As for `COc1cc(N2CCc3nc(NC(=O)NCCC(=O)NC(C)(C)C)sc3C2)nc(OC)n1` [Compound I-265], the inhibition at 10 µM on PI-3 kinase γ [1] (PI3Kγ, compound at 10 μM) was ≥ 95%. Besides, the inhibition in data set [3] is > 99.5%. At PI-3 kinase γ [4], this compound came in with a Ki of 42 nM.

Turning to `COC(=O)[C@H](CC(=O)OC(C)(C)C)NC(=O)Nc1nc2c(s1)CN(c1cc(OC)nc(OC)n1)CC2` [Compound I-277], the inhibition at 10 µM on PI-3 kinase γ [1] (PI3Kγ, compound at 10 μM) was ≥ 95%. The compound further came in with a Ki on PI-3 kinase γ [4] of 36 nM.

For the compound `CC(=O)Nc1cc2n(n1)CCN2c1ccc2cnccc2c1` [Compound I-284], the inhibition at 10 µM at PI-3 kinase γ [1] (PI3Kγ, compound at 10 μM) was ≥ 95%. In addition, the inhibition in data set [3] was > 99.5%. On PI-3 kinase γ [4], this compound displayed an inhibition constant (Ki) of 40 nM.

As to `CC(=O)Nc1cc2n(n1)CCN2c1ccc2c(c1)CCNC2=O` [Compound I-292], the inhibition at 10 µM on PI-3 kinase γ [1] (compound at 10 μmol/L) is ≥ 95%. The same compound registered a Ki on PI-3 kinase γ [4] of 43 nM.

Consider `COc1cc(N2CCc3nc(NC(=O)Nc4ccon4)sc3C2)nc(OC)n1` [Compound I-303], for which the inhibition at 10 µM on PI-3 kinase γ [1] (compound at 10 μmol/L) stood at 94%. The compound also returned a Ki at PI-3 kinase γ [4] of 45 nM. Besides, the “percentage of the test compound remained” value in “Metabolic stability test” is on record as 87.3%.

As for `COc1cc(N2CCc3nc(NC(=O)NCCC(=O)N(C)C(C)C)sc3C2)nc(OC)n1` [Compound I-310], the inhibition at 10 µM on PI-3 kinase γ [1] (compound at 10 μmol/L) is ≥ 95%. Also, in data set [3], the inhibition was > 99.5%. The Ki on PI-3 kinase γ [4] worked out at 43 nM.

Consider `COc1cc(N2CCc3nc(NC(=O)NCCC(=O)N4CCCC4(C)C)sc3C2)nc(OC)n1` [Compound I-318], for which the inhibition at 10 µM on PI-3 kinase γ [1] (compound at 10 μmol/L) was ≥ 95%. The inhibition in data set [3] was > 99.5%. Further, the inhibition constant (Ki) on PI-3 kinase γ [4] is 45 nM. In addition, in the data set “Solubility test”, the solubility at 16 h is > 50 µM.

Consider `CN1CCc2cc(N3CCn4nc(NC(=O)c5cnco5)cc43)ccc2C1=O` [Compound I-348], for which the inhibition at 10 µM at PI-3 kinase γ [1] (compound at 10 μmol/L) was ≥ 95%. Further, the inhibition in data set [3] is > 99.5%. Further, the solubility at 16 h in “Solubility test” was > 50 µM. Also, the “percentage of the test compound remained” value in the data set “Metabolic stability test” is on record as 94.5%.

As to `CN1CCc2cc(N3CCn4nc(NC(=O)c5cnc(NC(=O)OC(C)(C)C)s5)cc43)ccc2C1=O` [Compound I-375], the inhibition at 10 µM at PI-3 kinase γ [1] (compound at 10 μmol/L) was ≥ 95%. On PI-3 kinase γ [4], this compound showed a Ki of 23 nM.

Regarding `CN1CCc2cc(N3CCn4nc(NC(=O)c5cnc(N)s5)cc43)ccc2C1=O` [Compound I-380], the inhibition at 10 µM on PI-3 kinase γ [1] (compound at 10 μmol/L) is ≥ 95%. The compound further displayed a Ki on PI-3 kinase γ [4] of 32 nM.

For `COC(=O)Nc1cc[nH]c1C(=O)Nc1cc2n(n1)CCN2c1ccc2c(c1)CCN(C)C2=O` [Compound I-398], the inhibition at 10 µM at PI-3 kinase γ [1] (compound at 10 μmol/L) is ≥ 95%. At PI-3 kinase γ [4], this compound registered an inhibition constant Ki of 49 nM.

Turning to `CN1CCc2cc(N3CCn4nc(NC(=O)c5ccc(C(=O)NCC(=O)O)s5)cc43)ccc2C1=O` [Compound I-415], the inhibition at 10 µM on PI-3 kinase γ [1] (compound at 10 μmol/L) is ≥ 95%. On PI-3 kinase γ [4], this compound had a Ki of 34 nM.

The term Ki denotes the dissociation constant of the complex between target and ligand, obtained from inhibition or displacement. As usually defined, the solubility is the concentration that dissolves in the medium under given conditions.

The values are drawn from patent US20110230472A1, “RING-FUSED AZOLE DERIVATIVE HAVING PI3K-INHIBITING ACTIVITY” (Shionogi & Co., Ltd., priority 2008, published 2011).
